# Ends that are not written are not given here. * marks the point of attachment. Biotin = O=C1N[C@H]2[C@H](CS[C@H]2CCCCC(=O)*)N1; ttds = NCCCOCCOCCOCCCNC(=O)CCC(=O)*
# Columns and labels:
# [1] = system: Jurkat cell extract preys; assay: PBM-AP-MS, PBM peptide baits; format: binding, human
# CASK = assay: PBM-AP-MS from Jurkat extract; format: binding, Homo sapiens; conditions: prey CASK, PBM peptide bait
# Procedure: (§1) For PBM-AP-MS experiments, 30 μl streptavidin resin was mixed with biotin or peptide at 50–60 μM concentration in 6–6.5 resin volume for 60 min to achieve resin saturation. For PDZ-AP-MS experiments, 30 μl streptavidin resin was mixed with biotinylated MBP or MBP-PDZ at 40-50 μM concentration in >1000× resin volume for 60 min to achieve resin saturation. After saturation, resins were washed a single time (ten resin volume, holdup buffer), and were depleted with biotin (1 mM biotin, 5–10 resin volume, 10 min). Finally, resins were washed two times. 0.5 ml 2 mg/ml cell lysate was added to the dry resin (1 mg total input) and were incubated at 4 °C for 2 h. Then, the beads were washed three times with 10 resin volume buffer containing: 50 mM TRIS pH 8.5, 150 mM NaCl, 1% TritonX-100, 10× complete EDTA-free protease inhibitor cocktail, 2 mM EDTA, 1 mM TCEP. Then, the beads were washed two times with ten resin volume buffer containing: 50 mM TRIS pH 8.5, 150 mM NaCl, 1 mM TCEP. Finally, captured protein was eluted from the resin in two steps and the eluted fractions were pooled. For each elution the beads were incubated for 30 min with three resin volume buffer containing: 20 mM TRIS pH8.5, 100 mM NaCl, 500 μM TCEP, 8 M Urea. Between each step, the beads were separated by mild centrifugation and the supernatant was removed by gentle pipetting.
# (§2) Proteins were identified by database searching using SequestHT (Thermo Fisher Scientific) with Proteome Discoverer 2.4 software (PD2.4, Thermo Fisher Scientific) on human FASTA database downloaded from SwissProt (reviewed, release 2020_11_27, 20304 entries, https://www.uniprot.org/). Precursor and fragment mass tolerances were set at 7 ppm and 0.6 Da respectively, and up to two missed cleavages were allowed. Oxidation (M, +15.995 Da) was set as variable modification, and Carbamidomethylation (C, +57.021 Da) as fixed modification. Peptides and proteins were filtered with a false discovery rate at 1%. Label-free quantification was based on the extracted ion chromatography intensity of the peptides. All samples were measured in technical triplicates. The measured extracted ion chromatogram (XIC) intensities were normalized based on median intensities of the entire dataset to correct minor loading differences. For statistical tests and enrichment calculations, not detectable intensity values were treated with an imputation method, where the missing values were replaced by random values similar to the 10% of the lowest intensity values present in the entire dataset. Unpaired two-tailed T-test, assuming equal variance, were performed on obtained log2 XIC intensities. The detection threshold for enriched proteins in AP-MS experiments were analyzed above twofold enrichment with <0.01 P value. Then, proteins with PDZ-domains or PBMs were extracted from the list of enriched proteins. In case only a specific isoform of the detected protein contains a PBM, the identified peptide fragments were manually checked to check which isoform(s) were most likely detected. All raw LC-MS/MS data (from 165 runs) have been deposited to the ProteomeXchange via the PRIDE database with identifier PXD027743.
# DLG1 = assay: PBM-AP-MS from Jurkat extract; format: binding, Homo sapiens; conditions: prey DLG1, PBM peptide bait
# Procedure: as §1, §2
# LIN7C = assay: PBM-AP-MS from Jurkat extract; format: binding, Homo sapiens; conditions: prey LIN7C, PBM peptide bait
# Procedure: as §1, §2
# MAGI1 = assay: PBM-AP-MS from Jurkat extract; format: binding, Homo sapiens; conditions: prey MAGI1, PBM peptide bait
# Procedure: as §1, §2
# SCRIB = assay: PBM-AP-MS from Jurkat extract; format: binding, Homo sapiens; conditions: prey SCRIB, PBM peptide bait
# Procedure: as §1, §2
Substance,"Enrichment values compared to biotin controls ([1]; prey APBA1, PBM peptide bait)","Enrichment values compared to biotin controls ([1]; prey DLG4, PBM peptide bait)","Enrichment values compared to biotin controls ([1]; prey DVL2, PBM peptide bait)","Enrichment values compared to biotin controls ([1]; prey GOPC, PBM peptide bait)","Enrichment values compared to biotin controls ([1]; prey InaDl, PBM peptide bait)","Enrichment values compared to biotin controls ([1]; prey LAP2, PBM peptide bait)","Enrichment values compared to biotin controls ([1]; prey LNX2, PBM peptide bait)","Enrichment values compared to biotin controls ([1]; prey MAGI3, PBM peptide bait)","Enrichment values compared to biotin controls ([1]; prey MPP1, PBM peptide bait)","Enrichment values compared to biotin controls ([1]; prey MPP5, PBM peptide bait)","Enrichment values compared to biotin controls ([1]; prey MPP6, PBM peptide bait)","Enrichment values compared to biotin controls ([1]; prey MPP7, PBM peptide bait)","Enrichment values compared to biotin controls ([1]; prey MYO18A, PBM peptide bait)","Enrichment values compared to biotin controls ([1]; prey PDLIM2, PBM peptide bait)","Enrichment values compared to biotin controls ([1]; prey PDLIM5, PBM peptide bait)","Enrichment values compared to biotin controls ([1]; prey PDLIM7, PBM peptide bait)","Enrichment values compared to biotin controls ([1]; prey PDZD11, PBM peptide bait)","Enrichment values compared to biotin controls ([1]; prey PSMD9, PBM peptide bait)","Enrichment values compared to biotin controls ([1]; prey SIPA1L1, PBM peptide bait)","Enrichment values compared to biotin controls ([1]; prey SIPA1L2, PBM peptide bait)",other results
HPV18E6,5.1,3.2,1.0,15.5,0.8,2.3,1.0,5.4,0.547,3.3,2.5,4.4,0.4,1.5,0.8,1.1,1.0,0.8,1.2,1.1,"Enrichment values compared to biotin controls ([1]; prey SNTB1, PBM peptide bait): 6.6; Enrichment values compared to biotin controls ([1]; prey SNTB2, PBM peptide bait): 1.1; Enrichment values compared to biotin controls ([1]; prey SNX27, PBM peptide bait): 16.6; Enrichment values compared to biotin controls ([1]; prey SYNJ2BP, PBM peptide bait): 14.2; Enrichment values compared to biotin controls ([1]; prey TX1B3, PBM peptide bait): 7.1; Enrichment values compared to biotin controls (CASK): 15.2; Enrichment values compared to biotin controls (DLG1): 519.3; Enrichment values compared to biotin controls (LIN7C): 68.0; Enrichment values compared to biotin controls (MAGI1): 134.3; Enrichment values compared to biotin controls (SCRIB): 288.2"
HPV30E6 ({Biotin-ttds}-RHTTSTETAV),2.1,4.1,0.9,1.2,0.6,2.7,0.543,2.1,1.4,1.1,1.2,2.8,1.1,1.5,0.9,1.1,3.0,0.7,1.1,0.65,"Enrichment values compared to biotin controls ([1]; prey SNTB1, PBM peptide bait): 3.6; Enrichment values compared to biotin controls ([1]; prey SNTB2, PBM peptide bait): 1.0; Enrichment values compared to biotin controls ([1]; prey SNX27, PBM peptide bait): 14.6; Enrichment values compared to biotin controls ([1]; prey SYNJ2BP, PBM peptide bait): 1.5; Enrichment values compared to biotin controls ([1]; prey TX1B3, PBM peptide bait): 1.2; Enrichment values compared to biotin controls (CASK): 11.1; Enrichment values compared to biotin controls (DLG1): 488.6; Enrichment values compared to biotin controls (LIN7C): 26.9; Enrichment values compared to biotin controls (MAGI1): 25.1; Enrichment values compared to biotin controls (SCRIB): 266.4"
HPV35E6 ({Biotin-ttds}-SKPTRRETEV),2.9,3.9,1.1,1.3,0.9,2.0,0.8,3.7,1.3,1.4,1.4,2.9,0.9,1.7,0.851,1.2,1.8,0.748,1.1,1.1,"Enrichment values compared to biotin controls ([1]; prey SNTB1, PBM peptide bait): 5.0; Enrichment values compared to biotin controls ([1]; prey SNTB2, PBM peptide bait): 1.1; Enrichment values compared to biotin controls ([1]; prey SNX27, PBM peptide bait): 2.9; Enrichment values compared to biotin controls ([1]; prey SYNJ2BP, PBM peptide bait): 12.5; Enrichment values compared to biotin controls ([1]; prey TX1B3, PBM peptide bait): 4.1; Enrichment values compared to biotin controls (CASK): 12.7; Enrichment values compared to biotin controls (DLG1): 596.6; Enrichment values compared to biotin controls (LIN7C): 34.7; Enrichment values compared to biotin controls (MAGI1): 54.3; Enrichment values compared to biotin controls (SCRIB): 314.5"

# — paper PMC9482650, “Quantitative fragmentomics allow affinity mapping of interactomes” (Nature Communications, 2022)
